The text below walks through data of patent publication US6818621B2, “Osteopontin-derived chemotactic and inhibitory agents and uses therefor” (Children's Medical Center Corporation, priority 1999, dated 2004).

For experiment [1], the system named is cells recruited into the peritoneum. Kind of experiment: In vivo chemotaxis after injection of peptide into the peritoneal cavity, lavage and flow cytometry. The arrangement: species or system C57 black mice. To be noted: for induction ratio, Total / induction ratio, Total CD44 / induction ratio, B-lymphocytes / induction ratio, T-lymphocytes / induction ratio, Monocytes: 25 nmols i.p., 6 hours, normalized to PBS-injected mouse, average of 6 mice; for induction ratio, B-lymphocytes: B220+; for induction ratio, T-lymphocytes: CD3+; for induction ratio, Monocytes: Mac-1+. The procedure:
Since the peptide LVLDPK (SEQ ID NO:1) was chemotactic to tumor cells and macrophages in vitro, we tested whether the peptide was chemotactic in vivo. 25 nmols of the peptide were injected into the peritoneal cavity of C57 black mice. After six hours the cells recruited into the peritoneum were recovered by lavage and identified by flow cytometry. Titration of soluble peptides into the peritoneum induces a cellular infiltrate in a dose dependent manner. The induction ratio is the number of cells of a particular lineage recovered from the peritoneum of a peptide-injected mouse (e.g., 6 hours after injection) normalized for each experiment to the number of cells of the same lineage recovered from the peritoneum of a PBS-injected mouse. Cell numbers for PBS-injected mice ranged from […] to 646,000 cells total; 182,300 to 325,000 CD44^+ cells; 224,000 to 496,000 […] cells; 31,300 to 76,000 B220^+ cells; 18,100 to 21,100 CD3^+ cells), representing the induction of macrophages (Mac-1^+), B cells (B220^+), and T cells (CD3^+). Values represent an average of 6 mice.
(Flow cytometry measures light scatter and fluorescence of single cells or particles in a stream.)

A further experiment deals with MDA-MB-231 cells. The experiment is described as follows: Inhibition of OPN induced chemotaxis in the chemotactic chamber assay. The experiment is classed as cell-based, human. To be noted: for MI inhibitory: Table 4, 100 nmoles of peptide, cells migrating towards OPN in presence of buffer divided by number migrating towards OPN in presence of peptide. The procedure:
(§1) To evaluate the potential of peptide analogues to inhibit OPN induced chemotaxis, 100 nmoles of peptide was added to the lower compartment and the response of these cells to OPN was determined as described. MI(buffer) was calculated by dividing the number of cells migrating in response to peptide by the number of cells migrating in response to buffer. MI(inhibitory) equals the number of cells migrating towards OPN in the presence of buffer divided by the number migrating towards OPN in the presence of peptide.

In experiment [2] the test system is MDA-MB-231 cells (CD44+ human breast adenocarcinoma cells). Kind of experiment: Chemotactic chamber (Boyden) assay, migration through polycarbonate filters. The experiment is classed as cell-based. To be noted: for Migratory Index: Table 3, cells migrating in response to peptide/cells migration in response to LVLDPK; for MI buffer / MI: Table 4; for MI buffer: cells migrating in response to peptide divided by cells migrating in response to buffer; for MI: migratory index; for mean number of migrating cells per six random high powered fields: Table 2. The procedure: Each peak was then tested for mediation of chemotaxis or for its ability to inhibit OPN mediated chemotaxis using the chemotactic assay as follows (see e.g., Weber et al. (1996) Science 271:509-512). Briefly, uncoated polycarbonated filters (pore size […] ) were used to separate the upper and lower chambers of chemotactic wells. 1×10^3 MDA-MB-231 cells (CD44^+human breast adenocarcinoma cells) were added to the upper chamber and incubated in the presence or absence of the indicated 50 pmols peptide. After 4 hours, the filters were removed, fixed in methanol arid stained with hematoxylin and eosin. Cells which have responded to the peptide, migrate to various areas of the lower surface and can be counted microscopically. Each data point is reported as the mean number of migrating cells per random high power field.
Peptide 51 was identified as being chemotactic. The peptide was sequenced using a gas-phase sequenator and determined to have the sequence LVLDPK (SEQ ID NO:1). To confirm that chemotaxis was due to this peptide, a 16 amino acid peptide spanning the chemotactic sequence in OPN was synthesized and tested for its chemotactic properties. The resulting peptide, SP64 has the sequence KFHSHKDKLVLDPKSK (SEQ ID NO:2) and containing the chemotactic sequence from residues 9-14. 2×10^4 MDA-MB-231 cells were assayed for chemotactic response to the indicated peptides as described above. Each data point is reported as the mean number of migrating cells per six random high powered fields ± standard error of the mean. Each experiment was repeated four times.
To test the amino acid specificity for chemotactic response several substitutions were created in the chemotactic sequence and the new peptides tested for their ability to induce chemotaxis. Data are expressed as migratory index (cells migrating in response to peptide/cells migration in response to LVLDPK, SEQ ID NO:1).
as §1

Where no end group is shown, it is not given here.

For “VLDPK (OTHER INFORMATION: Description of Artificial Sequence:Synthetic Peptide) [pepF]”, in experiment [1], the “induction ratio, Total” value came out at 4; the “induction ratio, Total CD44” value turned out to be 3.1; the “induction ratio, B-lymphocytes” value stood at 1.1; the “induction ratio, T-lymphocytes” value is 0.8. Further, in experiment [1], the “induction ratio, Monocytes” value stood at 2.8. Besides, in experiment [1] (mouse, in vivo), the “chemotactic activity in vivo (in words)” value was “chemotactic but exhibited less activity”. Further, the MI inhibitory in the experiment on MDA-MB-231 cells was found to be 7. In addition, in experiment [2], the “Migratory Index” value is recorded as 0.7, the MI buffer is 6 and the MI is given as 0.7.

Turning to “LVPDPK (OTHER INFORMATION: Description of Artificial Sequence:Synthetic Peptide) [pepB]”, the MI inhibitory in the experiment on MDA-MB-231 cells is listed as 8. In experiment [2], the “Migratory Index” value stood at 1, the MI buffer is 10 and the MI was found to be 1.

Regarding “LLVDPK (OTHER INFORMATION: Description of Artificial Sequence:Synthetic Peptide)”, the “chemotactic activity (in words)” value in experiment [2] was “chemotactic activity”.

On to “LVIDPK (OTHER INFORMATION: Description of Artificial Sequence:Synthetic Peptide) [pepD]”, for which, in the experiment on MDA-MB-231 cells, the MI inhibitory is 9. Further, in experiment [2], the “Migratory Index” value turned out to be 1, the MI buffer was found to be 11 and the MI was determined as 1.

“ILVDPK (OTHER INFORMATION: Description of Artificial Sequence:Synthetic Peptide)”: in experiment [2], the “chemotactic activity (in words)” value was “chemotactic activity”.

For the substance “LVPDSK (OTHER INFORMATION: Description of Artificial Sequence:Synthetic Peptide) [pepC]”, the MI inhibitory in the experiment on MDA-MB-231 cells was determined as 10. In addition, in experiment [2], the “Migratory Index” value came to 1, the MI buffer was 7 and the MI is on record as 1.

On to “LVLDP (OTHER INFORMATION: Description of Artificial Sequence:Synthetic Peptide) [pepG]”, for which the MI inhibitory with MDA-MB-231 cells stood at 4. The “inhibition of chemotaxis by peptide (in words)” value in the experiment with MDA-MB-231 cells (migratory index against peptide 51) is reported as “inhibits chemotaxis”. Moreover, in experiment [2], the “Migratory Index” value is 0.1, the MI buffer is recorded as 0 and the MI came to 0.1.

As to “LVLDPA (OTHER INFORMATION: Description of Artificial Sequence:Synthetic Peptide) [pepK]”, in experiment [2], the “Migratory Index” value was found to be 0.1.

“LVLAPK (OTHER INFORMATION: Description of Artificial Sequence:Synthetic Peptide) [pepI]”: the MI inhibitory with MDA-MB-231 cells worked out at 9. Moreover, in experiment [2], the “Migratory Index” value is listed as 0.1, the MI buffer turned out to be 1 and the MI was found to be 0.1.

As for “LVLDEK (OTHER INFORMATION: Description of Artificial Sequence:Synthetic Peptide) [pepE]”, the MI inhibitory in the experiment with MDA-MB-231 cells was determined as 10. In experiment [2], the “Migratory Index” value is given as 0.2, the MI buffer was 2 and the MI came out at 0.2.

In the case of “KFHSHKDKLVLDPKSK (OTHER INFORMATION: Description of Artificial Sequence:Synthetic Peptide) [SP64]”, in the experiment with MDA-MB-231 cells, the MI inhibitory came out at 9. Moreover, the “mean number of migrating cells per six random high powered fields” value in experiment [2] (labelled agent in lower chamber, Ab64 in upper chamber) is reported as 25 cells per six random high powered fields; in experiment [2] (labelled agent in lower chamber, OPN in upper chamber), 66 cells per six random high powered fields; in experiment [2] (labelled agent in lower chamber, PBS in upper chamber, 2×10^4 cells), 217 cells per six random high powered fields; in experiment [2] (labelled agent in lower chamber, SP64 in upper chamber), 66 cells per six random high powered fields; in experiment [2] (labelled agent in lower chamber, pep 51 in upper chamber) it was 97 cells per six random high powered fields; in experiment [2] (labelled agent in upper chamber, PBS in lower chamber), 243 cells per six random high powered fields. In addition, the “Migratory Index” value in experiment [2] is 1. Besides, in experiment [2], the MI buffer is reported as 12. The MI in experiment [2] amounted to 1. Also, the “chemotactic response of MDA-MB231 (in words)” value in experiment [2] (p<0.01, 200 ng of bone OPN) was “stimulated the chemotactic response”.

Take “VDPK (OTHER INFORMATION: Description of Artificial Sequence:Synthetic Peptide)”: the “chemotactic activity (in words)” value in experiment [2] is “retain chemotactic activity”.

On to “VVLDPK (OTHER INFORMATION: Description of Artificial Sequence:Synthetic Peptide)”, for which, in experiment [2], the “chemotactic activity (in words)” value is listed as “chemotactic activity”.

On to “LELDPK (OTHER INFORMATION: Description of Artificial Sequence:Synthetic Peptide) [pepH]”, for which the MI inhibitory in the experiment with MDA-MB-231 cells was determined as 10. For the same substance, in experiment [2], the “Migratory Index” value worked out at 0.3, the MI buffer is listed as 2 and the MI amounted to 0.3.

On to Acetyl-LVLDP (Ac-LVLDP) [pepK″], for which, in the experiment on MDA-MB-231 cells, the MI inhibitory came to 4. The substance further came in with an MI buffer in experiment [2] of 1.

For “ILVVDPK (OTHER INFORMATION: Description of Artificial Sequence:Synthetic Peptide) [pepK′]”, in experiment [2], the “Migratory Index” value came out at 1.0.

With “LVLEPK (OTHER INFORMATION: Description of Artificial Sequence:Synthetic Peptide) [pepJ]”, the MI inhibitory in the experiment on MDA-MB-231 cells was determined as 9. Further, in experiment [2], the “Migratory Index” value is 0.6, the MI buffer is 6 and the MI stood at 0.6.

As to “LVLVPK (OTHER INFORMATION: Description of Artificial Sequence:Synthetic Peptide) [pepA]”, in experiment [1], the “induction ratio, Total” value is given as 1.3; the “induction ratio, Total CD44” value came out at 1.8; the “induction ratio, B-lymphocytes” value is 1; the “induction ratio, T-lymphocytes” value is listed as 1.1. The “induction ratio, Monocytes” value in experiment [1] turned out to be 1.2. Also, the “Migratory Index” value in experiment [2] is recorded as 0.2.

“VLDSK (OTHER INFORMATION: Description of Artificial Sequence:Synthetic Peptide)”: in experiment [2], the “chemotactic activity (in words)” value is “retain chemotactic activity”.
